This is an account of results in PMC12187842, “A novel molecule targeting neutrophil-mediated B-1a cell trogocytosis attenuates sepsis-induced acute lung injury” (Frontiers in Immunology, 2025).

What all share (type): in vivo, mouse
The subject of assay [1] is neutrophil-mediated B-1a cell trogocytosis. Kind of assay: Neutrophil-mediated B-1a cell trogocytosis by flow cytometry after C11 treatment in CLP mice. To be noted: C11 10 mg/kg i.p. once immediately after CLP; cells isolated 4 h after CLP; CFSE-positive events within Ly6G-positive neutrophils; n = 5-6/group; p < 0.05 vs. C11 (-). The text has this: (§1) Mice were anesthetized with 2% isoflurane in oxygen, and sepsis was induced via cecal ligation and puncture (CLP) ([26]). A 1-cm midline abdominal incision was made to expose the cecum, which was ligated 1-cm proximal to its end using a 4-0 silk suture. The cecum then was perforated with a single through-and-through puncture using a 22-gauge needle, positioned midway between the ligation and the tip of the cecum. A small amount of fecal material was gently extruded from the perforation sites to confirm the patency of the punctures, and the cecum was subsequently returned to the peritoneal cavity. Following abdominal closure, resuscitation was provided via subcutaneous (s.c.) injection of 500 µL normal saline. […]
B-1a cells (target cells) were isolated, and dead cells were removed using the EasySep Dead Cell Removal Kit (Cat. No. 17899, STEMCELL Technologies). […] Trogocytosis was evaluated using confocal imaging (LSM900; Zeiss, Oberkochen, Germany) to visualize the interaction between neutrophils and B-1a cells. NucBlue Live ReadyProbes Reagent (Thermo Fisher Scientific) was used for nuclear staining. For quantitative analysis, trogocytosis was assessed by flow cytometry, where CFSE (Carboxyfluorescein succinimidyl ester)-positive events within Ly6G-positive neutrophil populations were quantified as indicators of trogocytosis. […]
In general terms: A flow cytometer gives signals particle by particle.

Assay [2] has as its system CLP-induced sepsis in C57BL/6 mice. Kind of assay: Plasma pro-inflammatory cytokines in CLP mice by ELISA. To be noted: C11 10 mg/kg i.p. once after CLP (Figure 5 legend: 10 μg/kg); 20 h; n = 5-7/group; p < 0.05 vs. CLP vehicle.
Text: as §1, with “saline. Postoperative analgesia was administered with a single dose of 0.1 mg/kg buprenorphine.” for “saline.”
Blood was collected by heart puncture. Plasma levels of organ injury markers (ALT: alanine transaminase, AST: aspartate transferase, and LDH: lactate dehydrogenase) were assessed by using colorimetric enzymatic assays (MedTest Dx, Canton, MI) according to the manufacturer’s protocol. Plasma levels of pro-inflammatory cytokines (TNFα: tumor necrosis factor α, and IL-6: interleukin-6) were measured by using mouse-specific ELISA kits (BD Biosciences).
In general terms: In an ELISA, binding on a coated surface is turned into a signal by an enzyme label.

Assay [3] shares this test system. The assay can be described thus: Lung myeloperoxidase activity in CLP mice. To be noted: C11 10 mg/kg i.p. once after CLP (Figure 5 legend: 10 μg/kg); 20 h; n = 5-7/group; vs. CLP vehicle.
Text: as §1, with “saline. Postoperative analgesia was administered with a single dose of 0.1 mg/kg buprenorphine.” for “saline.”
Approximately 50 to 100 mg of septic lung tissue, previously snap-frozen in liquid nitrogen and pulverized into a fine powder, was homogenized in potassium phosphate (KPO4) buffer containing 0.5% hexadecyltrimethylammonium bromide (HTAB; MilliporeSigma, Burlington, MA). […] The enzymatic reaction was monitored by measuring light absorbance at 460 nm over a five-minute period. MPO activity was expressed as units per gram of tissue, where one unit was defined as the change in absorbance per minute.

The test system is the same in assay [4]. The assay can be described thus: Lung wet-to-dry weight ratio in CLP mice. To be noted: C11 10 mg/kg i.p. once after CLP (Figure 5 legend: 10 μg/kg); 20 h; n = 5-7/group; vs. CLP vehicle.
Text: as §1, with “saline. Postoperative analgesia was administered with a single dose of 0.1 mg/kg buprenorphine. To evaluate the effects of the therapeutic peptide (named Compound 11 or C11) (synthesized by GenScript USA Inc., Piscataway, NJ) on sepsis, C57BL/6 mice were assigned to three experimental groups: the Sham group, the CLP group treated with vehicle, and the CLP group treated with C11 (10 mg/kg). C11 was dissolved in DMSO (10 mg/mL) and diluted with saline to a total volume of 500 µL.” for “saline.”
Lung wet and dry weights were measured as previously described ([30]). […] The wet-to-dry weight ratio was calculated as an indicator of pulmonary edema.

Assay [5] has the same test system. The assay can be described thus: Lung histopathology (H&E) in CLP mice. To be noted: C11 10 mg/kg i.p. once after CLP (Figure 5 legend: 10 μg/kg); 20 h; n = 5-7/group; vs. CLP vehicle.
Text: as §1, with “saline. Postoperative analgesia was administered with a single dose of 0.1 mg/kg buprenorphine. To evaluate the effects of the therapeutic peptide (named Compound 11 or C11) (synthesized by GenScript USA Inc., Piscataway, NJ) on sepsis, C57BL/6 mice were assigned to three experimental groups: the Sham group, the CLP group treated with vehicle, and the CLP group treated with C11 (10 mg/kg). C11 was dissolved in DMSO (10 mg/mL) and diluted with saline to a total volume of 500 µL.” for “saline.”
Lung tissues were fixed in 10% formalin, embedded in paraffin, sectioned into 5-μm-thick slices, and stained with hematoxylin and eosin (H&E). […] Lung fields at ×400 magnification were scored and averaged for analyses.

For assay [6] the test system is unchanged. Kind of assay: TUNEL assay of lung tissue in CLP mice. To be noted: C11 10 mg/kg i.p. once after CLP (Figure 5 legend: 10 μg/kg); 20 h; n = 5-7/group; vs. CLP vehicle.
Text: as §1, with “saline. Postoperative analgesia was administered with a single dose of 0.1 mg/kg buprenorphine.” for “saline.”
To determine cellular apoptosis we used a TUNEL assay kit (Roche Diagnostics, Indianapolis, IN) using 5-μm lung sections by following the manufacturer’s instructions. […] The TUNEL-positive cells were assessed by LSM900 confocal microscope (Zeiss) microscopes. The number of apoptotic cells/fields was quantified using ImageJ, Fiji software (version 1.53k).

Turning to 126-ELKNRTVSWFS-136 [Compound C11], the “neutrophil-mediated B-1a cell trogocytosis” value in assay [1] was “significantly reduced”. Besides, in assay [2], the “plasma IL-6” value is given as “significantly reduced” and the “plasma TNF-α” value is on record as “significantly reduced”. The “lung MPO activity” value in assay [3] is given as “attenuated”. For the same substance, the “sepsis-induced pulmonary edema (lung wet-to-dry ratio)” value in assay [4] is “effectively reduced”. Further, the “sepsis-induced lung injury (H&E histology, lung injury score 0 to 1)” value in assay [5] is given as “significantly mitigated”. For the same substance, the “lung apoptosis (TUNEL+ cells)” value in assay [6] is “reduced tissue damage and apoptosis”.
